Publication PMC11357256, “Selectivity Screening and Structure–Cytotoxic Activity Observations of Selected Oleanolic Acid (OA)-Type Saponins from the Amaranthaceae Family on a Wiade Panel of Human Cancer Cell Lines” (Molecules, 2024)

Columns and labels:
Du-145 = assay: MTT cell viability assay, Du-145 prostate carcinoma cells; type: cell-based; details: Homo sapiens
Description: (§1) Cell lines used in the study were grouped as follows: skin panel (melanomas: HTB140, derived from metastatic site: lymph node, ATCC Hs 294 T; malignant A375, ATCC CRL-1619; stage I primary WM793, RRID:CVCL 8787; skin keratinocytes HaCaT); prostate panel (prostate carcinomas: Du145, derived from metastatic site: brain, ATCC HTB-81; grade IV PC3, derived from metastatic site: bone, ATCC CRL-1435, LNCaP, derived from the metastatic site: lymph node, ATCC CRL-1740; prostate epithelial, PNT2, ECACC 95012613); gastrointestinal panel (colorectal adenocarcinomas: Caco2, ATCC HTB-37, HT29, ATCC HTB-38, DLD-1, ATCC CCL-221, HCT116, ATCC CCL-247, and colon epithelial cells CCD 841 CoN, ATCC CRL-1790; hepatocellular carcinoma HepG2, ATCC HB-8065); thyroid panel (follicular thyroid carcinoma FTC133, ECACC 9406090, undifferentiated thyroid carcinoma 8505C, ECACC 94090184, papillary thyroid carcinoma TPC-1, SCC147, normal thyroid follicular epithelial Nthy-ori 3–1, ECACC 90011609); and breast panel (ER-positive breast adenocarcinoma MCF7, ATCC HTB-22; ER-negative breast adenocarcinoma MDA-MB-231, ATCC HTB-26; breast epithelial MCF10A, ATCC CRL-10317). Cells were grown under standard conditions (37 °C, 5% CO2, relative humidity), and culture media (DMEM/F12 for PNT2, WM 793, HT29, PC3, FTC133, 8505 C, MDA-MB-231, TPC-1; DMEM Low Glucose for DU145; DMEM High Glucose for HTB140, A375, HaCaT; MEM with NEAA for Caco2 and MCF7; RPMI1640 with sodium pyruvate for LNCaP; DMEM/F12 with 20 ng/mL epidermal growth factor (EGF), 10 μg/mL insulin, 0.5 μg/mL hydrocortisone, 100 ng/mL cholera toxin) for MCF10A) supplemented with 10% fetal bovine serum (FBS) or 5% donor horse serum for MCF10A, and 1% antibiotics solution (10,000 U penicillin and 10 mg streptomycin/mL) […], as previously described. All cell lines, culture media, and supplements were from Sigma-Aldrich (Germany).
(§2) The cells were seeded in 96-well plates (1.5 × 10^4 cells/well). After 24 h, fresh medium was added, containing the tested compounds (0.5–100 μg/mL) and incubated for 24 or 48 h. Cell viability was determined by MTT assay, according to the manufacturer’s instructions, as described previously. Each experiment was performed in triplicate. The absorbance was measured at 570 nm using a Biotek Synergy microplate reader (BioTek Instruments Inc., Winooski, VT, USA). Cell viability was expressed as a percent of control (untreated cells). Doxorubicin was used as a reference drug.

PC3 = assay: MTT cell viability assay, PC3 prostate carcinoma cells; type: cell-based; details: Homo sapiens, PC-3
Description: as §1, §2

LNCaP = assay: MTT cell viability assay, LNCaP prostate adenocarcinoma cells; type: cell-based; details: Homo sapiens
Description: as §1, §2

PNT2 = assay: MTT cell viability assay, PNT2 normal prostate epithelial cells; type: cell-based; details: Homo sapiens
Description: as §1, §2

MDA-MB-231 = assay: MTT cell viability assay, MDA-MB-231 breast adenocarcinoma cells; type: cell-based; details: Homo sapiens
Description: as §1, §2

MCF7 = assay: MTT cell viability assay, MCF7 breast adenocarcinoma cells; type: cell-based; details: Homo sapiens
Description: as §1, §2

MCF10A = assay: MTT cell viability assay, MCF10A normal breast epithelial cells; type: cell-based; details: Homo sapiens, MCF-10A
Description: as §1, §2

FTC133 = assay: MTT cell viability assay, FTC133 follicular thyroid carcinoma cells; type: cell-based, human; details: for IC50: Homo sapiens, FTC-133
Description: as §1, §2
(§3) The selectivity index (SI) was calculated from the following formula:SI = IC50 of compound in a normal cell line/IC50 of compound in cancer cell line.IC50, half maximal inhibitory concentration, is a concentration required to kill 50% of the cells.

8505C = assay: MTT cell viability assay, 8505C undifferentiated thyroid carcinoma cells; type: cell-based, human; details: Homo sapiens, 8505C
Description: as §1, §2, §3

TPC-1 = assay: MTT cell viability assay, TPC-1 papillary thyroid carcinoma cells; type: cell-based, human; details: for IC50: Homo sapiens, TPC1
Description: as §1, §2, §3

Nthy-ori 3-1 = assay: MTT cell viability assay, Nthy-ori 3-1 normal thyroid epithelial cells; type: cell-based; details: Homo sapiens
Description: as §1, §2

Caco-2 = assay: MTT cell viability assay, Caco-2 colon cancer cells; type: cell-based; details: Homo sapiens
Description: as §1, §2

HT29 = assay: MTT cell viability assay, HT29 colorectal adenocarcinoma cells; type: cell-based; details: Homo sapiens, HT-29
Description: as §1, §2

HepG2 = assay: MTT cell viability assay, HepG2 hepatocellular carcinoma cells; type: cell-based; details: Homo sapiens
Description: as §1, §2

DLD-1 = assay: MTT cell viability assay, DLD-1 colon cancer cells; type: cell-based; details: Homo sapiens
Description: as §1, §2

HCT116 = assay: MTT cell viability assay, HCT116 colon cancer cells; type: cell-based; details: Homo sapiens, HCT-116
Description: as §1, §2

CCD 841 CoN = assay: MTT cell viability assay, CCD 841 CoN normal colon epithelial cells; type: cell-based; details: Homo sapiens
Description: as §1, §2

HTB-140 = assay: MTT cell viability assay, HTB-140 metastatic melanoma cells; type: cell-based, human; details: for IC50: Homo sapiens
Description: as §1, §2, §3

A375 = assay: MTT cell viability assay, A375 malignant melanoma cells; type: cell-based, human; details: for IC50: Homo sapiens, A-375; for Selectivity Index (SI): IC50 HaCaT / IC50 A375, 24 h
Description: as §1, §2, §3

WM793 = assay: MTT cell viability assay, WM793 primary melanoma cells; type: cell-based, human; details: for IC50: Homo sapiens
Description: as §1, §2, §3

HaCaT = assay: MTT cell viability assay, HaCaT keratinocytes; type: cell-based; details: Homo sapiens
Description: as §1, §2

[1] = IC50 Nthy-ori 3-1 / IC50 FTC133, 24 h
[2] = IC50 HaCaT / IC50 HTB-140, 24 h

In the case of `CC1(C)CC[C@]2(C(=O)O[C@@H]3O[C@H](CO)[C@@H](O)[C@H](O)[C@H]3O)CC[C@]3(C)C(=CC[C@@H]4[C@@]5(C)CC[C@H](O[C@@H]6O[C@H](C(=O)O)[C@@H](O)[C@H](O)[C@H]6O)C(C)(C)[C@@H]5CC[C@]43C)[C@@H]2C1` [ChIVa, 3-O-β-D-glucuronopyranosyl oleanolic acid 28-O-β-D-glucopyranosyl ester], the IC50 (Du-145; DU-145, 24 h) is reported as 22.9 mg/L, the IC50 (Du-145; DU-145, 48 h) is reported as 9.1 mg/L and the IC50 (PC3; PC3, 24 h) is reported as 45.6 mg/L. It also gave an IC50 (PC3; PC3, 48 h) of 22.8 mg/L, an IC50 (LNCaP; 24 h) greater than 100 mg/L and an IC50 (LNCaP; 48 h) greater than 100 mg/L. The IC50 (PNT2; 24 h) was greater than 100 mg/L, the IC50 (PNT2; 48 h) was greater than 100 mg/L and the IC50 (MDA-MB-231; MDA-MB-231, 24 h) was greater than 100 mg/L. For the same molecule, the IC50 (MDA-MB-231; MDA-MB-231, 48 h) was 98.1 mg/L, the IC50 (MCF7; MCF7, 24 h) was greater than 100 mg/L and the IC50 (MCF7; MCF7, 48 h) was greater than 100 mg/L. For the same molecule, the IC50 (MCF7; MCF7, MCF-7, incubation time not stated) was greater than 100 mg/L, the IC50 (MCF10A; 24 h) was greater than 100 mg/L and the IC50 (MCF10A; 48 h) was greater than 100 mg/L. For the same molecule, the IC50 (FTC133; FTC133, 24 h) was 8.5 mg/L, the IC50 (FTC133; FTC133, 48 h) was 4 mg/L and the “Selectivity Index (SI)” value (FTC133; [1]) was greater than 11.76. For the same molecule, the “Selectivity Index (SI)” value (FTC133; IC50 Nthy-ori 3-1 / IC50 FTC133, 48 h) was greater than 25.1, the IC50 (8505C; 24 h) was greater than 100 mg/L and the IC50 (8505C; 48 h) was greater than 100 mg/L. The IC50 (TPC-1; TPC-1, 24 h) was greater than 100 mg/L, the IC50 (TPC-1; TPC-1, 48 h) was 81.8 mg/L and the “Selectivity Index (SI)” value (TPC-1; IC50 Nthy-ori 3-1 / IC50 TPC-1, 48 h) was greater than 1.2. The IC50 (Nthy-ori 3-1; 24 h) was greater than 100 mg/L, the IC50 (Nthy-ori 3-1; 48 h) was greater than 100 mg/L and the IC50 (Caco-2; Caco-2, 24 h) was 69 mg/L. The IC50 (Caco-2; Caco-2, 48 h) was 15.8 mg/L, the IC50 (HT29; HT29, 24 h) was 14.9 mg/L and the IC50 (HT29; HT29, 48 h) was 5.6 mg/L. For the same molecule, the IC50 (HepG2; HepG2, 24 h) was 30 mg/L, the IC50 (HepG2; HepG2, 48 h) was 20.9 mg/L and the IC50 (DLD-1; DLD-1, 24 h) was greater than 100 mg/L. The IC50 (DLD-1; DLD-1, 48 h) was 50.3 mg/L, the IC50 (HCT116; HCT116, 24 h) was greater than 100 mg/L and the IC50 (HCT116; HCT116, 48 h) was 78.2 mg/L. It also gave an IC50 (CCD 841 CoN; 24 h) greater than 100 mg/L, an IC50 (CCD 841 CoN; 48 h) greater than 100 mg/L and an IC50 (HTB-140; HTB-140, 24 h) of 15 mg/L. The IC50 (HTB-140; HTB-140, 48 h) was 8.7 mg/L, the “Selectivity Index (SI)” value (HTB-140; [2]) was 0.5 and the “Selectivity Index (SI)” value (HTB-140; IC50 HaCaT / IC50 HTB-140, 48 h) was 0.4. For the same molecule, the IC50 (A375; A375, 24 h) was 1.6 mg/L, the IC50 (A375; A375, 48 h) was 0.6 mg/L and the “Selectivity Index (SI)” value (A375) was 4.6. The IC50 (WM793; WM793, 24 h) was 18.5 mg/L, the IC50 (WM793; WM793, 48 h) was 4.4 mg/L and the “Selectivity Index (SI)” value (WM793; IC50 HaCaT / IC50 WM793, 24 h) was 0.4. The “Selectivity Index (SI)” value (WM793; IC50 HaCaT / IC50 WM793, 48 h) was 0.7, the IC50 (HaCaT; 24 h) was 7.3 mg/L and the IC50 (HaCaT; 48 h) was 3.1 mg/L.
In the case of `COc1cccc2c1C(=O)c1c(O)c3c(c(O)c1C2=O)C[C@@](O)(C(=O)CO)C[C@@H]3O[C@H]1C[C@H](N)[C@H](O)[C@H](C)O1` [DOX, Doxorubicin], the IC50 (Du-145; DU-145, 24 h) is reported as 3.2 mg/L, the IC50 (PC3; PC3, 24 h) is reported as greater than 50 mg/L and the IC50 (LNCaP; 24 h) is reported as 1.8 mg/L. For the same molecule, the IC50 (PNT2; 24 h) was 1.4 mg/L, the IC50 (FTC133; FTC133, 24 h) was 4 mg/L and the “Selectivity Index (SI)” value (FTC133; [1]) was 6.76. The IC50 (8505C; 24 h) was greater than 40 mg/L, the IC50 (TPC-1; TPC-1, 24 h) was 3.9 mg/L and the “Selectivity Index (SI)” value (TPC-1; IC50 Nthy-ori 3-1 / IC50 TPC-1, 24 h) was 7.0. The IC50 (Nthy-ori 3-1; 24 h) was 27.2 mg/L, the IC50 (Caco-2; Caco-2, 24 h) was 3.4 mg/L and the IC50 (HT29; HT29, 24 h) was 1.5 mg/L. The IC50 (HepG2; HepG2, 24 h) was 1 mg/L, the IC50 (DLD-1; DLD-1, 24 h) was 1.1 mg/L and the IC50 (HCT116; HCT116, 24 h) was 4 mg/L. For the same molecule, the IC50 (CCD 841 CoN; 24 h) was 1.7 mg/L, the IC50 (HTB-140; HTB-140, 24 h) was 5.7 mg/L and the “Selectivity Index (SI)” value (HTB-140; [2]) was 0.8. The IC50 (A375; A375, 24 h) was 0.6 mg/L, the “Selectivity Index (SI)” value (A375) was 7.9 and the IC50 (WM793; WM793, 24 h) was greater than 40 mg/L. It also gave an IC50 (HaCaT; 24 h) of 4.7 mg/L.
